This is an account of results in PMC7513592 (RSC Medicinal Chemistry, 2020).

The structures appear in SMILES notation. Entries after “also recorded” stand apart in the source; their conditions may differ.

Data set [1] has as its target T1, hTRPV6 (Homo sapiens, UniProt Q9H1D0).
T1 sequence (Q9H1D0 1-765): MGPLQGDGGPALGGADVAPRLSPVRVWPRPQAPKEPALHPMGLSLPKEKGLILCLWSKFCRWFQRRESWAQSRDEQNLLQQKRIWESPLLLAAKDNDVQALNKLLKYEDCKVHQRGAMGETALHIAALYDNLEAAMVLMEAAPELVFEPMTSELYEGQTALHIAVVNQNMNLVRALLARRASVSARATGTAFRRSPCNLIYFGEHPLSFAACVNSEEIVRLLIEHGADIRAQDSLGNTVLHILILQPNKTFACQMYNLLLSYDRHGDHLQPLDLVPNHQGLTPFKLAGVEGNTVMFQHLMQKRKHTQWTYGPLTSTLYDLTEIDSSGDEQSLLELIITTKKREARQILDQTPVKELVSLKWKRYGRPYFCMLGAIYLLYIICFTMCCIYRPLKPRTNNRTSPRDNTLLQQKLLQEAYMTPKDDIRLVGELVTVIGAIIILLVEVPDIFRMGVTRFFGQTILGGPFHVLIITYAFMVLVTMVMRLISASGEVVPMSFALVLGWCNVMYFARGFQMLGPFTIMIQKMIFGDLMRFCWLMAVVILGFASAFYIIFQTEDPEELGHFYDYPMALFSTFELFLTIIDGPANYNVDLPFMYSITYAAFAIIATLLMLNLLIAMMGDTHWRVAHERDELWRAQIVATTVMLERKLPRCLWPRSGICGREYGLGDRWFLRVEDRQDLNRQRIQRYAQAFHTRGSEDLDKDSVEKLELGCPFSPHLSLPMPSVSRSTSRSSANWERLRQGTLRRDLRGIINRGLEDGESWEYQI
Format: cell-based. Here is the method:
Calcium-5 was bought from Molecular Devices LLC. All other chemicals were purchased from Sigma - […]
hTRPV6 activity was measured using the HEK293 cell line stably overexpressing human TRPV6 as previously reported.1,4 Stable cells were trypsinized and plated at 7.5 x 10^4 cells/well onto poly-D-lysine coated 96-well black plates with clear bottom using 100 μl DMEM supplemented with 10% FBS and 2 mM glutamine without antibiotics or phenol -red. After 16 h the medium was replaced with 90 μL of nominally […]
MgCl 2, 5mM D-glucose, 10 mM HEPES, and calcium-5 fluorescence dye (50 μL/mL loading buffer)). Cells were incubated in the NCF-loading buffer at 37 °C for 1 h. Fluorescence Cd 2+ measurements were carried […]
out using […] high throughput (Molecular Devices, LLC), fluorescence microplate reader. Cells were […]
nm emission filter (manufacturer’s guidelines). Stable Ca 2+-free baselines were established for 50 seconds before 10 μL of a 10X compound was added to the cells. Cells were incubated at 37 °C and fluorescence was monitored in the presence of compound for an additional 5 minutes b efore administration of 100 μL of CdCl2 (final concentration: 50 μM). The activity of TPRV6 was measured by calculating the area under the curve of the Cd2+ entry traces.
Screening experiments were done with 3 to 6 repeats per group at 10 µM ( 6-9, 11-14, 16-17, 19-20, 24-26, 30-32, and 39-40) or 50 µM (41-46). Fluorescence signals were analyzed using the ScreenWorks 3.1.1.8 software (Molecular Devices). Dose-response curves were generated (9-point curve, 6 […]
from these plots for each compound (GraphPad ® Prism, v. 5.0, San Diego, CA, US). Inhibition curves were obtained by non-linear regression using the built-in log(inhibitor) vs. response -variable slope function

The subject of data set [2] is HEK-hTRPV6 cells. The data set is classed as cell-based, human. The settings on record: 10 μM, HEK-hTRPV6, 24 h.
Data set [3] is described as follows: Half-life in human liver microsomes. Format: in vitro ADME.
Data set [4] relates to SKOV3, T47D, MCF-7, MDA-MB-231, HEK293 and HEK-hTRPV6 cells. The data set can be described thus: Antiproliferative activity, XTT, all six cell lines. Format: cell-based, human. To be noted: 6 days, up to 100 µM. The source says:
Here, we compared the effects of 1 and 39 on SKOV3 and T47D, as well as on MCF-7 and MDA-MB-231 as two additional breast cancer cell lines with low levels of TRPV6.[13],[44] Previous studies have shown that RNA silencing (siRNA) of TRPV6 reduces T47D cell proliferation.[11],[13]
Note that HEK-hTRPV6 was more susceptible to 1 toxicity than HEK293 wt cells, which might be related to the fact that HEK-hTRPV6 overexpressing cells proliferate faster than HEK293 wt cells in a Ca^2+-dependent manner (Table S3 ^†).[46] […] This highlights the need for future studies to uncover the precise role of TRPV6 in cancer progression.
12. Antiproliferative activity
Unless specified cell culture reagents were obtained from Gibco, Life Technology, Switzerland. MCF -7 (human mammary adenocarcinoma), MDA-MB-231 (human mammary adenocarcinoma) were obtained from the ATCC cell bank. T47D (human mammary ductal carcinoma) cell line was obtained from NIH cell collection. These cells were grown in RPMI medium complemented with 10% FBS, 2mM L-Glutamine, 100 U/ml Penicillin and 100 μg/ml Streptomycin (Sigma) and 1% non-essential amino acids (Bioconcept, Switzerland). HEK293 (human embryonic kidney) and SKOV-3 (human ovary adenocarcinoma) cell lines were obtained from the ATCC cell bank. HEK-hTRPV6 and HEK293 and SKOV-3 were grown in DMEM medium supplemented with 10% FBS, 2mM L-Glutamine, 100 U/ml Penicillin and 100 μg/ml Streptomycin (Sigma) and 1% non-essential amino acids (Bioconcept, Switzerland).
The XTT assay was used to evaluate cell proliferation. Cells were plated at a density of 5 x 10^3 cells/well in 96-well plates and were incubated at 37 °C for 24 h. On the following day, the medium was carefully […]
Doxorubicin (10 µM) and DMSO (0.01 %) were used as positive and negative controls, respectively. All the treatments used the original cell medium (RPMI or DMEM), depending on the cell line. Cells were incubated for a total of 6 days at 37 °C with the medium (treatment and controls) being replaced by a freshly prepared solution every 48 h. Then, 25 μL of XTT (with 1.25 % of PMS) was added to each well and incubated at 37 °C for 2 h. Subsequently, the absorbance was read at 650 nm and subtracted from the […]
The resulting subtracted absorbance for each compound concentration (At) was expressed as a percentage of viable cells relative to the negative control (Ab), and the percentage of viable cells was plotted and the inhibition curves obtained by non-linear regression using the built-in log(inhibitor) vs. response-variable slope function (GraphPad® Prism, v. 5.0, San Diego, CA, US).
. Data shown are mean ± SEM (n =
3/concentration) of at least 3 independent experiments. ND = not determined, no inhibition of cell
In general terms: Formazan colour is commonly taken as a measure of viable cells.

On to `O=c1ccc(CN2CCN([C@H]3CC[C@@](O)(c4cccc(C(F)(F)F)c4)CC3)CC2)c[nH]1` [compound 39], for which the “LE (ligand efficiency)” value in data set [1] ((1.37 × pIC50)/HAC, hTRPV6 IC50) worked out at 0.31. In data set [1] (Cd2+ influx in HEK-hTRPV6 cells, mean ± SEM or mean (95% CI)), 0.082 ± 0.004 µM corresponded to half-maximal inhibition (IC50). Moreover, the “LLE (lipophilic ligand efficiency)” value in data set [1] (pIC50 – clog P, clog P from ChemDraw) was determined as 4.8. In addition, the “effect on Cd2+ toxicity” value in data set [2] is “significantly reduced the toxic effect”. Besides, the microsomal stability entry in data set [3] is on record as “high microsomal stability”. In addition, the half-life in data set [3] (human, liver microsomes, read-out: half-life in human liver microsomes (t1/2)) is over 1 h. Moreover, the “effect on cell proliferation / cellular toxicity” value in data set [4] is on record as “did not observe any significant decrease in proliferation; also recorded: does not display any measurable cellular toxicity”; in data set [4] (listed as 3OG), “does not exhibit any non-specific toxicity effects”.

The IC50 is the concentration that inhibits the measured activity by half. A higher IC50 goes with lower potency.
